Test results from patent EP1263429B1, “ANTIVIRAL THERAPY” (Universiteit Utrecht, priority 2000, dated 2001).

Tested on: HIV-1
Experiment: IC50 determination of an anti-viral (Table 3)
Format: cell-based
Conditions: Human immunodeficiency virus 1

## CCCCC#CCSc1ccccc1OCCCC [BPHS]
  IC50: 40 µM
